# Data from patent US9650635B2, “Pharmaceutical compositions comprising small interfering RNA inhibitors of NOX3” (UNIVERSITY OF GENEVA, priority 2004, dated 2017).
# Experiments:
# Format in all cases: cell-based
# NOX3/NOXO1/NOXA1 = target: T1, NOX3/NOXO1/NOXA1 (Mus musculus, UniProt Q672J9, D161Y); test: Superoxide production of HEK293 cells expressing NOX3/NOXO1/NOXA1 (luminol-amplified chemiluminescence)
# T1 construct: expressed in transfected cells
# Procedure: (§1) HEK293 were maintained in Dulbecco's Modified Eagle's Medium/Ham's Nutrient Mixture F12 that was supplemented with 10% fetal calf serum, penicillin (100 units/ml), streptomycin (100 μg/ml), and 4 mmol/liter L-glutamine. NOX3-, NOXO1-, NOXA1-, p47^phox, and p67^phox cDNAs were subcloned into pcDNA3.1 (Invitrogen, Groningen, Netherlands) and transfected into HEK293 cells with the Effectene transfection system (Qiagen). To obtain stable clones, NOX3, NOXO1, NOXA1-transfected HEK293 cells were selected with 400 μg/ml G418 starting on the 2nd day after the transfection. After 14 days of selection, 24 surviving clones were tested for superoxide production. The positive clones were verified to express NOX3-, NOXO1-, and NOXA1 RNA by RT-RCR.
# (§2) ROS generation was measured by the peroxidase-dependent luminol-amplified chemiluminescence technique (referred to as luminol-amplified chemiluminescence) in 96 well microplates using Luminometer Wallac 1420 Multilabel Counter (PerkinElmer Life Sciences). Measurements were performed in Hanks' balanced salt solution supplemented with 1 mg/ml D-glucose, 1 unit/ml horseradish peroxidase, and 250 μM luminol. In some experiments, phorbol ester (PMA) was added during the measurements to 100 nM final concentration. When the effect of cisplatin or 5-Fluorouracil (5-FU) was investigated, these compounds were pre-incubated with the cells for the indicated time and concentration in cell culture medium. Before ROS measurements, the cell culture medium was exchanged with the assay solution and chemiluminescence or absorption (see below) was measured at 37° C. After measurements cells were counted, and the results were normalized to 150,000 cells. Extracellular superoxide production was measured in 96-well microplates at 550 nm as the SOD-sensitive reduction of 100 μM ferricytochrome C (referred to as cytochrome C reduction technique). The O^−2 production was calculated using an absorption coefficient of 21.1 mM^−1 cm^−1 and normalized to 10^7 cells.
# [1] = system: HEK293 cells transfected with control vector (pcDNA3.1); test: Superoxide production of HEK293 cells transfected with control vector; conditions: control-transfected (pcDNA3.1) HEK293 cells, 20 μM cisplatin, 12 hours
# Procedure: as §1, with “The positive clones were verified to express NOX3-, NOXO1-, and NOXA1 RNA by RT-RCR.” left out
# (§3) ROS generation was measured by the peroxidase-dependent luminol-amplified chemiluminescence technique (referred to as luminol-amplified chemiluminescence) in 96 well microplates using Luminometer Wallac 1420 Multilabel Counter (PerkinElmer Life Sciences). […] Before ROS measurements, the cell culture medium was exchanged with the assay solution and chemiluminescence or absorption (see below) was measured at 37° C. After measurements cells were counted, and the results were normalized to 150,000 cells. Extracellular superoxide production was measured in 96-well microplates at 550 nm as the SOD-sensitive reduction of 100 μM ferricytochrome C (referred to as cytochrome C reduction technique). […]
# NOX3 = target: T2, NOX3 (Mus musculus, UniProt Q672J9, D161Y); test: Superoxide production of HEK293 cells transfected with NOX3 alone (luminol-amplified chemiluminescence / Diogenes / cytochrome C reduction)
# T2 construct: expressed in transfected cells; host or cells: HEK293, transient transfection, pcDNA3.1
# T2 sequence (Q672J9 1-568 D161Y): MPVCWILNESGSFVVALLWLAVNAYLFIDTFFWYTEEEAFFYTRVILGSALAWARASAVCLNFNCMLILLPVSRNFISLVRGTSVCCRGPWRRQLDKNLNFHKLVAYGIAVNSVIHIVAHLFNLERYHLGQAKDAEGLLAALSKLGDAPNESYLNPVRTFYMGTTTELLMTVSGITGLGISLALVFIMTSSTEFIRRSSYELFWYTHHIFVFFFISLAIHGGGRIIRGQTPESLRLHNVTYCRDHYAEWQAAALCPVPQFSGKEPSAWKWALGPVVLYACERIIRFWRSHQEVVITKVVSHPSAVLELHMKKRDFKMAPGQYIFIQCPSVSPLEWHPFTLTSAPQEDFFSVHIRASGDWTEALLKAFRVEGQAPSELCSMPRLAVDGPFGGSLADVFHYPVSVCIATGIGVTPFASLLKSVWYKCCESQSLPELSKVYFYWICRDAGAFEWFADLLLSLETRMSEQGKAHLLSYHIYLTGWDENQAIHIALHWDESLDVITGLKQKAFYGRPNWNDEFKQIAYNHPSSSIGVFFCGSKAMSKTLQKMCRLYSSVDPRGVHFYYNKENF
# T2 sequence (P13498 1-195 partner): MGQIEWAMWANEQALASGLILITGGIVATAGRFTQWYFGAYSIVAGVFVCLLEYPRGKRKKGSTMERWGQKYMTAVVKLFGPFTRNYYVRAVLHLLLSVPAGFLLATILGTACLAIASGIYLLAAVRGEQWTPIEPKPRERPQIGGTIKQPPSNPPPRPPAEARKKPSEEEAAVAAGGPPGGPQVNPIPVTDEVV
# Procedure: as §1, §2
# [2] = target: T3, NOX3, p47^phox, and p67^phox (Mus musculus, UniProt Q672J9, D161Y); test: Superoxide production of HEK293 cells co-transfected with NOX3, p47phox and p67phox
# T3 construct: expressed in transfected cells; host or cells: HEK293, transient co-transfection, pcDNA3.1
# T3 sequence (Q672J9 1-568 D161Y): T2 sequence (Q672J9 1-568 D161Y)
# T3 sequence (P13498 1-195 partner): T2 sequence (P13498 1-195 partner)
# Procedure: as §1, §2
# [3] = target: T4, p47^phox, NOXA1, and NOX3 (Mus musculus, UniProt Q672J9, D161Y); test: Superoxide production of HEK293 cells expressing p47phox, NOXA1 and NOX3; conditions: 100 nM PMA
# T4 construct: expressed in transfected cells; host or cells: HEK293, transient co-transfection, pcDNA3.1
# T4 sequence (Q672J9 1-568 D161Y): T2 sequence (Q672J9 1-568 D161Y)
# T4 sequence (P13498 1-195 partner): T2 sequence (P13498 1-195 partner)
# Procedure: as §1, with “The positive clones were verified to express NOX3-, NOXO1-, and NOXA1 RNA by RT-RCR.” left out
# as §3
# [4] = target: T5, NOXO1, p67^phox, and NOX3 (Mus musculus, UniProt Q672J9, D161Y); test: Superoxide production of HEK293 cells expressing NOXO1, p67phox and NOX3; conditions: 100 nM PMA
# T5 construct: expressed in transfected cells; host or cells: HEK293, transient co-transfection, pcDNA3.1
# Procedure: as §1, with “The positive clones were verified to express NOX3-, NOXO1-, and NOXA1 RNA by RT-RCR.” left out
# as §3
# [5] = stable clone, 12 hours incubation
# T1 sequence (Q8NFA2 whole entry partner, one chain of several): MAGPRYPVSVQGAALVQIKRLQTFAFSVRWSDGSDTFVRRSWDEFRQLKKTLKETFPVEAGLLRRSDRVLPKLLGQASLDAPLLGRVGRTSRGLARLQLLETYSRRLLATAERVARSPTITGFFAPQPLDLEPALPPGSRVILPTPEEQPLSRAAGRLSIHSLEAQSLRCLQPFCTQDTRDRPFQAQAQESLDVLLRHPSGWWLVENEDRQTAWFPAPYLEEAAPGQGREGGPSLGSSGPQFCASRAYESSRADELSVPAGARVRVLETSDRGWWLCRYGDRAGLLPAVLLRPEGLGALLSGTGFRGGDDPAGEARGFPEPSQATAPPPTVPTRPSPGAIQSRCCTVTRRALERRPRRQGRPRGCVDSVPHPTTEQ
# T1 sequence (Q86UR1 whole entry partner, one chain of several): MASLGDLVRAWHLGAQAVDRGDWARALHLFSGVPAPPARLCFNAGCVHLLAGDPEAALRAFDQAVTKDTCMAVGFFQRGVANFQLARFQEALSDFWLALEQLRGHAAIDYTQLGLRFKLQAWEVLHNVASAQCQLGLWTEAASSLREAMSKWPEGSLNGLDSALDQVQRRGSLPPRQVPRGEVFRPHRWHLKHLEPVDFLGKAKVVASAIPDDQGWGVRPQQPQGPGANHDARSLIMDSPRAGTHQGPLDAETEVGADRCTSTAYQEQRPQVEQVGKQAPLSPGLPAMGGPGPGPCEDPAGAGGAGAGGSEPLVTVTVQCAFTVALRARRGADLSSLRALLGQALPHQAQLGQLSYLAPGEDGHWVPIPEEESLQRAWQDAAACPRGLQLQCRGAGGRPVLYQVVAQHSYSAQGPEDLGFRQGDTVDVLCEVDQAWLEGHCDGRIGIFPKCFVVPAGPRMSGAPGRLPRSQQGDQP
# T5 sequence (Q8NFA2 whole entry partner, one chain of several): as the sequence (Q8NFA2 whole entry partner, one chain of several) above
# T5 sequence (P19878 whole entry partner, one chain of several): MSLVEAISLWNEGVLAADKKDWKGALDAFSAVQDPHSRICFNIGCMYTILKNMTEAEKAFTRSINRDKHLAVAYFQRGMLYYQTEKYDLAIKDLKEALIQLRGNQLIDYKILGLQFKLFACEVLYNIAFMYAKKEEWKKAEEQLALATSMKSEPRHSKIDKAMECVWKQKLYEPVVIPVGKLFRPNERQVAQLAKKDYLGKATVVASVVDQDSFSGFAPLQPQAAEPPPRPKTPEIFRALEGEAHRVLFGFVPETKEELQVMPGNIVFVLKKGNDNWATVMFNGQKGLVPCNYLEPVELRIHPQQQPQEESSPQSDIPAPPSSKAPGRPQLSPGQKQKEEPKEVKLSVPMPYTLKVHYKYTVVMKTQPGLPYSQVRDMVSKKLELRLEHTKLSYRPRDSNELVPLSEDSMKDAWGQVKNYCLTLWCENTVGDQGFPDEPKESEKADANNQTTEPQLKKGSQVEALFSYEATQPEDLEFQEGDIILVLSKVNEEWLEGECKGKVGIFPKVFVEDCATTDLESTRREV
structure (smiles),measurement,setting,value
"O=c1[nH]cc(F)c(=O)[nH]1 [5-fluorouracil, 5-Fluorouracil]",effect of 5-fluorouracil on superoxide production,"NOX3/NOXO1/NOXA1; 100 μM, 17 hours, data not shown",did not influence superoxide production
N.N.[Cl][Pt][Cl] [Cisplatin],effect of cisplatin on superoxide production,"NOX3/NOXO1/NOXA1; stable HEK293 clones, 20 μM cisplatin, 12 hours",marked increase of superoxide production
same,t50 of NOX3 activation,"NOX3/NOXO1/NOXA1; stable clone, 20 μM cisplatin",11.5 ± 1.7 h
same,treatment time at which NOX3 activity is already enhanced,"NOX3/NOXO1/NOXA1; stable clone, 20 μM cisplatin",5 h
same,treatment time to maximal effect,"NOX3/NOXO1/NOXA1; stable clone, 20 μM cisplatin",around 17 hours
same,concentration at which NOX3-dependent ROS generation is already increased,NOX3/NOXO1/NOXA1; [5],1 µM
same,concentration with maximal effect on NOX3-dependent ROS generation,NOX3/NOXO1/NOXA1; [5],20 µM
same,EC50,"NOX3/NOXO1/NOXA1; stable clone, 12 hours incubation, read-out: EC50 of NOX3 activation",3.6 µM
same,effect of cisplatin on superoxide production,[1],not in control-transfected cells
same,effect of cisplatin on superoxide production,"NOX3; NOX3-transfected HEK293 cells, 20 μM cisplatin, 12 hours, before PMA addition",elicited superoxide production
same,factor of enhancement of superoxide production,"[2]; 20 μM cisplatin, 12 hours",approximately 3.3
"c1ccc2c(c1)[I+]c1ccccc1-2 [DPI, diphenylene iodonium]",effect of DPI on superoxide generation,"NOX3/NOXO1/NOXA1; stable HEK293 clones, with or without cisplatin, 5 μM DPI",abolished
same,effect of DPI on superoxide generation,"NOX3; NOX3-transfected HEK293 cells, cisplatin and PMA treated, 5 μM DPI",blocked it completely
same,effect of DPI on superoxide production,"[2]; cisplatin-treated cells, 5 μM DPI, not shown",blocked
"CCCCCCCCCCCCCC(=O)O[C@@H]1[C@@H](C)[C@@]2(O)[C@@H](C=C(CO)C[C@]3(O)C(=O)C(C)=C[C@@H]23)[C@@H]2C(C)(C)[C@]12OC(C)=O [PMA, phorbol 12-myristate 13-acetate]",effect of PMA on superoxide generation,"NOX3/NOXO1/NOXA1; NOX3/NOXO1/NOXA1 HEK293 cells, 100 nM PMA",insensitive to PMA
same,effect of PMA on superoxide production,[3],largely PMA-dependent
same,effect of PMA on superoxide generation after cisplatin,"NOX3; NOX3-transfected HEK293 cells pre-incubated with 20 μM cisplatin, 100 nM PMA",further increased superoxide generation
same,superoxide generation in the presence of PMA,"NOX3; NOX3-transfected HEK293 cells, no other subunits, 100 nM PMA",low amounts of superoxide
same,effect of PMA on superoxide generation,[4],could not be further enhanced by PMA
same,effect of PMA on NOX3 activity,[2]; 100 nM PMA,strong enhancement of NOX3 activity
